Entries after “also recorded” stand apart in the source; their conditions may differ.
What was measured:
[1] = Absorption spectroscopy titration with ferric chloride; details: 40 μM peptide, 298 K
human CCK2 receptor = target: T1, human CCK2 receptor (Homo sapiens, UniProt P32239); assay: Receptor binding assay, CCK2 receptor; details: 1 μM desferrioxamine, COS-7 cells; triplicates, ANOVA
T1 sequence (P32239 1-447): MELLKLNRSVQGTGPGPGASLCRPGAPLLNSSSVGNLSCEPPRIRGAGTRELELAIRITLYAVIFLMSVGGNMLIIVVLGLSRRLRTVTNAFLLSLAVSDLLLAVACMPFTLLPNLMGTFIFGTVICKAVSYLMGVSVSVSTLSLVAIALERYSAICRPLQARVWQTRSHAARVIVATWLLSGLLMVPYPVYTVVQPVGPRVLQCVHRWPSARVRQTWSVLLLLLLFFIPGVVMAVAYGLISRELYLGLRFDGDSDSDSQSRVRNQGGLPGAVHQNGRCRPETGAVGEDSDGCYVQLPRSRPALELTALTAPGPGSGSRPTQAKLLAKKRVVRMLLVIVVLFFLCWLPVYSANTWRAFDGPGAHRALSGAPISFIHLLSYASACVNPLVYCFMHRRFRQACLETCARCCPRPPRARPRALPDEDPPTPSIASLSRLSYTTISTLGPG

[2] = system: cell proliferation and migration; details: cited from earlier work
human CCK1 receptor = target: T2, human CCK1 receptor (Homo sapiens, UniProt P32238); assay: Receptor binding assay, CCK1 receptor; details: 1 μM desferrioxamine, COS-7 cells; triplicates, ANOVA
T2 sequence (P32238 1-428): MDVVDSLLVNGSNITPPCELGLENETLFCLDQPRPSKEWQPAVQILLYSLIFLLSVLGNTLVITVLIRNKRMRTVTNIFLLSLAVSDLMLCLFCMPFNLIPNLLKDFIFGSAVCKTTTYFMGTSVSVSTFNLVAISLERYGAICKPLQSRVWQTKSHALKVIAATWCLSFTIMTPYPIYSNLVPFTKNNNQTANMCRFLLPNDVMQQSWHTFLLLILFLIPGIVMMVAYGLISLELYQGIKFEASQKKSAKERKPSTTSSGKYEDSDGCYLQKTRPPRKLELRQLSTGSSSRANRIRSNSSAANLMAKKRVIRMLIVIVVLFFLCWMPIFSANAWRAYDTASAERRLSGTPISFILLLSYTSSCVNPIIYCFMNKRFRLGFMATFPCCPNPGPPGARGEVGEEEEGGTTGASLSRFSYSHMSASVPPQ

Solubility for NMR = format: physicochemical; details: 80% H2O/10% ^2H2O/10% 2H6-DMSO
[3] = NMR titration with ferric ions; format: binding; details: pH 4.0, 298 K, FeCl3, precipitate in the NMR tube
[4] = cited from earlier work
[5] = Absorption titration with ferric citrate; format: binding; details: by relative association constants

Compound: CCK4
- absorbance change on addition of ferric chloride, pH 4.0 (in words) ([1]; pH 4.0, 275 nm): no change in the absorbance; also recorded: did not cause any change in absorption
- absorbance change / binding on addition of ferric chloride, pH 6.5 (in words) ([1]; pH 6.5, 275 nm): No evidence of binding of ferric ions; also recorded: no increase in absorbance was seen

Compound: CC(=O)N(O)CCCCCNC(=O)CCC(=O)N(O)CCCCCNC(=O)CCC(=O)N(O)CCCCCN [desferrioxamine]
- effect on binding of labelled CCK8SO4, CCK2 receptor (in words) (human CCK2 receptor): no significant effect; also recorded: inability
- effect on biological activity of glycine-extended gastrin (in words) ([2]; stimulation of cell proliferation and migration): completely blocked the biological activity of glycine-extended gastrin
- effect on binding of labelled CCK8SO4, CCK1 receptor (in words) (human CCK1 receptor): no significant effect; also recorded: inability

Compound: CSCC[C@H](NC(=O)[C@H](Cc1ccc(O)cc1)NC(=O)[C@@H](N)CC(=O)O)C(=O)NCC(=O)N[C@@H](Cc1c[nH]c2ccccc12)C(=O)N[C@@H](CCSC)C(=O)N[C@@H](CC(=O)O)C(=O)N[C@@H](Cc1ccccc1)C(N)=O [CCK8]
- solubility (in words) (Solubility for NMR): required the presence of ^2H6-DMSO (80% H2O/10% ^2H2O/10% 2H6-DMSO) to achieve solubility at 0.23 mM
- solubility of Fe^3+-peptide complex (in words) [3]: formation of an insoluble Fe^3+-peptide complex

Compound: ZGPWLEEEEEAYGWMDFamide [amidated gastrin]
- requirement of ferric ions for biological activity (in words) [2]: ferric ions were not required for the biological activity

Compound: N[C@@H](Cc1ccc(OP(=O)(O)O)cc1)C(=O)O [phosphotyrosine]
- pKa of the phosphoryl group [4]: 5.9

Compound: O=C(O)CC(O)(CC(=O)O)C(=O)O [citrate]
- relative Fe^3+ binding (in words) [5]: binds Fe^3+ ions more tightly than any of the CCK peptides

From publication PMC2574882 (The Biochemical journal, 2008)
